Consider six molecules from ChEMBL document CHEMBL1201862, “PubChem BioAssay data set” (2004).

Activity calls are given as the source filed them.

For orientation: AC50 means the concentration at which the activity in the assay is half-maximal. By IC50 is commonly meant the concentration that gives 50% inhibition. Broadly, the EC50 is the concentration needed to bring the measured effect to its halfway point. Usually CC50 stands for the concentration at which the toxic effect on the cells reaches its halfway point.

Assay [1] concerns the target Long-chain-fatty-acid--AMP ligase FadD28 (Mycobacterium tuberculosis, UniProt P9WQ59). Put plainly: Fluorescence polarization aasay to screen for inhibitors that compete for the binding of FadD28 to a bisubstrate Measured in Biochemical System Using Plate Reader - 2147-01_Inhibitor_Dose_CherryPick_Activity. The assay is classed as functional, Mycobacterium tuberculosis H37Rv. For orientation: Fluorescence polarisation rises when a labelled molecule tumbles more slowly, as on binding a larger partner.

Another assay addresses T1, Estrogen receptor (Homo sapiens, UniProt P03372).
T1 sequence (P03372 whole entry): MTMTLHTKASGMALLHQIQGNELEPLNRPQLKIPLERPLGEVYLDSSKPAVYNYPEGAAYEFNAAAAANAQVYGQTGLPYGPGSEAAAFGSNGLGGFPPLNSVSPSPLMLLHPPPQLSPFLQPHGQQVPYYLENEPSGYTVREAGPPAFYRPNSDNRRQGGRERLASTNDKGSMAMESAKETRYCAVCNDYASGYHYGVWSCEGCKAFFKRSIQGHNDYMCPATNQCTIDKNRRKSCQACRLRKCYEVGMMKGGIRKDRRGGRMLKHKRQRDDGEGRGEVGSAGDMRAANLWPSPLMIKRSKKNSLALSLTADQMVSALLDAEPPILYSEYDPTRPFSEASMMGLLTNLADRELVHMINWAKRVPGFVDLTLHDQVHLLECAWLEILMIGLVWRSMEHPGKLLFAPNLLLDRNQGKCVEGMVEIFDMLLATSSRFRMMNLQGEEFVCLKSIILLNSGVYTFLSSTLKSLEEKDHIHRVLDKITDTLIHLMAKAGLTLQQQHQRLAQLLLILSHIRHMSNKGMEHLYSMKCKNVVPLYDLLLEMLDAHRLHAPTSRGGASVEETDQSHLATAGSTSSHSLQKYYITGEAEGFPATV

Assay [2] in a line: HEK293 cell viability, dose response, counter-screen for EBV LMP1 inhibitor project, dry powder, set 2 (AID 624374). The assay is classed as functional.
Assay [3] is described as follows: Counterscreen for activators of the function of SWI/SNF related, matrix associated, actin dependent regulator of chromatin, subfamily a, member 2 (SMARCA2, BRM): Luminescence-based cell-based high throughput dose response assay to identify non-selective compounds using the VP16 reporter assay. The assay is classed as functional.
The next assay relates to INS1. The experiment in a line: beta cell apoptosis inhibitors, cytokine rescue, dose response, luminescence, retest (AID 449756).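 Further: cell death triggered by IL-1 beta plus TNF-alpha plus IFN-gamma mixture; protective hits raise ATP signal compared with cytokine alone wells.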 The assay is classed as functional, cell-based. Particulars: Rattus norvegicus.
The nature of assay [4]: cells. The assay is classed as functional, cell-based.
The target in assay [5] is T2, Microphthalmia-associated transcription factor (Homo sapiens, UniProt O75030).
T2 sequence (O75030 whole entry): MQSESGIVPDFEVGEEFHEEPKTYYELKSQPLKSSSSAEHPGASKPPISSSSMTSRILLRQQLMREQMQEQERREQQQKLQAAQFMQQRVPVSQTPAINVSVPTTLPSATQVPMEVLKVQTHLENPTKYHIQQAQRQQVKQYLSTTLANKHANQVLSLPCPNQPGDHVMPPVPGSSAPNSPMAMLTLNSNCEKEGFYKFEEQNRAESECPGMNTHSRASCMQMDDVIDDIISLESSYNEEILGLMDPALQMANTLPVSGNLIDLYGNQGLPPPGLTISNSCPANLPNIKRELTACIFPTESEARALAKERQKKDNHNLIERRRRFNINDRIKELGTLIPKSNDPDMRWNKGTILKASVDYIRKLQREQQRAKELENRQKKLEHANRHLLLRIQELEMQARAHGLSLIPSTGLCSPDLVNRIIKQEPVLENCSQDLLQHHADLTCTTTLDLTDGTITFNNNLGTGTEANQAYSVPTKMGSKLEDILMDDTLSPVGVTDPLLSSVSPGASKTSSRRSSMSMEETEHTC
Put plainly: TRPM1 promoter luciferase signal decrease, dose response, MITF inhibitor project, cell-based, SK-MEL-5, cherry-picked, set 3 (AID 493073).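 Further: SK-MEL-5 melanoma cells with luciferase driven by the MITF target TRPM1 promoter.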 The assay is classed as functional.

Assay [6] concerns the target T3, Heat shock factor protein 1 (Mus musculus, UniProt P38532).
T3 sequence (P38532 whole entry): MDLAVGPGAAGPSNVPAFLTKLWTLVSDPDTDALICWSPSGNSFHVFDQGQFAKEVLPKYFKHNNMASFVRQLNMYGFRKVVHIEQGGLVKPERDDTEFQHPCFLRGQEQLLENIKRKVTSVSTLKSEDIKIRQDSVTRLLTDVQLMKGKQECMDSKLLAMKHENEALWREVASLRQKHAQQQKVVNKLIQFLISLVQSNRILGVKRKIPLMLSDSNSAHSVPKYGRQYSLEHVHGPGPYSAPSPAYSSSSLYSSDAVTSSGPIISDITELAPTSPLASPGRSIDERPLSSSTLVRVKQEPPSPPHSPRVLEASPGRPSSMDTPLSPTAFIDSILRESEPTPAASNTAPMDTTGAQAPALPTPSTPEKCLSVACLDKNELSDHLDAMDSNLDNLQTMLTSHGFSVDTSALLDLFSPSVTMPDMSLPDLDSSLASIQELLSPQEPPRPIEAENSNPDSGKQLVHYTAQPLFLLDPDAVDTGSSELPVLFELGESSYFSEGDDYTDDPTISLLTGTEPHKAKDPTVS
The experiment in a line: HSF1 potentiators in luciferase reporter cells, confirmation, cell-based, NIH3T3, luminescence, dose retest (AID 435004).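 Further: stress induced by proteasome inhibitor MG132 added 30 min after compound; luciferase reporter driven by HSF1 response element in NIH3T3 cells; actives raise luminescence as potentiators of the MG132 stress response.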 The assay is classed as functional. On the technique in general: Reporter assays use an easily measured gene product as a stand-in for the process of interest.

A short description of assay [7]: Luminescence-based cell-based high throughput dose response assay to identify activators of the DAF-12 from the parasite S. stercoralis (ssDAF-12). The assay is classed as functional.
Assay [8] is described as follows: cells. The assay is classed as functional, cell-based. This is another data set of the same source.
The nature of assay [9]: inhibitors of intracellular T. cruzi replication, confirmation, NIH3T3 host cells, beta-gal luminescence (AID 2044).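 Further: intracellular parasites grown in NIH/3T3 mouse fibroblasts as host cells; luminescent beta-galactosidase reporter signal from transgenic T. cruzi replicating inside host cells; inhibitors lower the luminescence signal.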 The assay is classed as functional, cell-based.
The target in assay [10] is SWI/SNF-related matrix-associated actin-dependent regulator of chromatin subfamily A member 2 (Homo sapiens, UniProt P51531). Put plainly: Luminescence-based cell-based high throughput dose response assay to identify activators of the function of SWI/SNF related, matrix associated, actin dependent regulator of chromatin, subfamily a, member 2 (SMARCA2, BRM). The assay is classed as functional.
SWI/SNF-related matrix-associated actin-dependent regulator of chromatin subfamily A member 2, sequence (P51531 whole entry): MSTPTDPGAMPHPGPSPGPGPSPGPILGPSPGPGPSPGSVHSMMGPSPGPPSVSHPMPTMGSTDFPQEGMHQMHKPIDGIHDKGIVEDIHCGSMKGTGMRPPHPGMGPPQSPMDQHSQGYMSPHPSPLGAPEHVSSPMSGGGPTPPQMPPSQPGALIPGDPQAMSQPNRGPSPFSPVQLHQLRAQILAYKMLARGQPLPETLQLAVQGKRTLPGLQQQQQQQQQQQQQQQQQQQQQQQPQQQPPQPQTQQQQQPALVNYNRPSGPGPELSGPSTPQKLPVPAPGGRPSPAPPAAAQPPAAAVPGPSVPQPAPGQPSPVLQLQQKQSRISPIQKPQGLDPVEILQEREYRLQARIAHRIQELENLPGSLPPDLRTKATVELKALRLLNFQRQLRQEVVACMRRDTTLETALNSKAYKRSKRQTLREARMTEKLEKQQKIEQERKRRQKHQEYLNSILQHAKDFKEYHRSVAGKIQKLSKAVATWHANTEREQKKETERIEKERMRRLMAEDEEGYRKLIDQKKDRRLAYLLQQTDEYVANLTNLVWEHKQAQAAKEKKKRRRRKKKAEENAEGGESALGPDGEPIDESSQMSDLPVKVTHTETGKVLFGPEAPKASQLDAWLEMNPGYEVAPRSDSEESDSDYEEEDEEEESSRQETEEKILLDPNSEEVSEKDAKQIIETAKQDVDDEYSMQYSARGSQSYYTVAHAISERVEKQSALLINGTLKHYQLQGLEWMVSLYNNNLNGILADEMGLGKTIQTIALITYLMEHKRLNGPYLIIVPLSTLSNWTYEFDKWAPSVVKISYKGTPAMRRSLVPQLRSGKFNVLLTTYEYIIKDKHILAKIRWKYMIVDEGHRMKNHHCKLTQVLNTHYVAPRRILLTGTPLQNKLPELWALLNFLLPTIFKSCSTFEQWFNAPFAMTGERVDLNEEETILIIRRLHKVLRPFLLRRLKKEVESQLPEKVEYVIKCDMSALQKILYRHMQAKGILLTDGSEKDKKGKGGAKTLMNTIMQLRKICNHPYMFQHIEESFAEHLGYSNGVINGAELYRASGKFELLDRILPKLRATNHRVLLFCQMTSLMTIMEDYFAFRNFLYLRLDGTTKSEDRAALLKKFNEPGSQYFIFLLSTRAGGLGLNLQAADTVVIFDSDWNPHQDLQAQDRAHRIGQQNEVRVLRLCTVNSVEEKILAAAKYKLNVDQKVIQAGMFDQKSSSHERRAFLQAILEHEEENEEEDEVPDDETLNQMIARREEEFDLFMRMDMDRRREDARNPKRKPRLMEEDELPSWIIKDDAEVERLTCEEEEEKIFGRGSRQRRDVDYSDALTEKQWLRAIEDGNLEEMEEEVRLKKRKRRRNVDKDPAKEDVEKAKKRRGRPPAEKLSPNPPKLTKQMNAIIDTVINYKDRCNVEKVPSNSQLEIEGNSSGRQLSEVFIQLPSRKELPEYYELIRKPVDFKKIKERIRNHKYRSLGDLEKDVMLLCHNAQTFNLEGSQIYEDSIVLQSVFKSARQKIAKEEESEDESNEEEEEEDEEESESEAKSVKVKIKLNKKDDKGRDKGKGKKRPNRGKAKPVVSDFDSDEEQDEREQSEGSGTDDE

Assay [11] addresses T4, COUP transcription factor 2 (Homo sapiens, UniProt P24468).
T4 sequence (P24468 whole entry): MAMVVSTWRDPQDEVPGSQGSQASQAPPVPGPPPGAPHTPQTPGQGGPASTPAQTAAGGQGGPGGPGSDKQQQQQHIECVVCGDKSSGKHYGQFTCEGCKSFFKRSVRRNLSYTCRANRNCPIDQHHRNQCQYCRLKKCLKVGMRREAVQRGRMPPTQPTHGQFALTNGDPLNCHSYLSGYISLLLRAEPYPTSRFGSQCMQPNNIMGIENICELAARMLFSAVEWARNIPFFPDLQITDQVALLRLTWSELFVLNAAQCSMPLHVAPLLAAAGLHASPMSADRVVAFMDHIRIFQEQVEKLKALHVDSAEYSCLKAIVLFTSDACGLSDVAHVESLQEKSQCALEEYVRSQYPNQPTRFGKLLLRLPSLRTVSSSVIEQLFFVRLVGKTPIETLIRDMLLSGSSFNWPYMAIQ
The experiment in a line: Luminescence-based cell-based high throughput dose response assay to identify inhibitors of COUP-TFII (NR2F2). The assay is classed as functional.

Assay [12] in a line: cells. The assay is classed as functional, cell-based. Conditions: HEK-CNG.
The next assay has as its target Galanin receptor type 3 (Homo sapiens, UniProt O60755). Put plainly: Fluorescence-based cell-based primary high throughput dose response assay to identify antagonists of the Galanin Receptor 3 (GalR3). The assay is classed as functional.
Assay [13] has as its target T5, DNA repair protein RAD52 homolog (Homo sapiens, UniProt P43351).
T5 sequence (P43351 whole entry): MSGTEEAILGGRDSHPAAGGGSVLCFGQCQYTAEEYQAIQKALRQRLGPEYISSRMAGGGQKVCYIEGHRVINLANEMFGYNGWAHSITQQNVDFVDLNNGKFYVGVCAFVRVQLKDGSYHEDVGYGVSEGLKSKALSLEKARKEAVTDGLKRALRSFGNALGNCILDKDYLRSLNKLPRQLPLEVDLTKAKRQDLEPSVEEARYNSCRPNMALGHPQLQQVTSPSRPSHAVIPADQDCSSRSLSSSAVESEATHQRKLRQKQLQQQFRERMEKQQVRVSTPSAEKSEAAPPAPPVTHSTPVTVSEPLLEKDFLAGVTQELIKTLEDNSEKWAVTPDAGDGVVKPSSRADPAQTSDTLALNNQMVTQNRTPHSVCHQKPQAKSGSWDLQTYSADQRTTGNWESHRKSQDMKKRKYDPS
The assay is classed as functional, biochemical.

Assay [14] concerns the target T6, Rac GTPase-activating protein 1 (Homo sapiens, UniProt Q9H0H5).
T6 sequence (Q9H0H5 whole entry): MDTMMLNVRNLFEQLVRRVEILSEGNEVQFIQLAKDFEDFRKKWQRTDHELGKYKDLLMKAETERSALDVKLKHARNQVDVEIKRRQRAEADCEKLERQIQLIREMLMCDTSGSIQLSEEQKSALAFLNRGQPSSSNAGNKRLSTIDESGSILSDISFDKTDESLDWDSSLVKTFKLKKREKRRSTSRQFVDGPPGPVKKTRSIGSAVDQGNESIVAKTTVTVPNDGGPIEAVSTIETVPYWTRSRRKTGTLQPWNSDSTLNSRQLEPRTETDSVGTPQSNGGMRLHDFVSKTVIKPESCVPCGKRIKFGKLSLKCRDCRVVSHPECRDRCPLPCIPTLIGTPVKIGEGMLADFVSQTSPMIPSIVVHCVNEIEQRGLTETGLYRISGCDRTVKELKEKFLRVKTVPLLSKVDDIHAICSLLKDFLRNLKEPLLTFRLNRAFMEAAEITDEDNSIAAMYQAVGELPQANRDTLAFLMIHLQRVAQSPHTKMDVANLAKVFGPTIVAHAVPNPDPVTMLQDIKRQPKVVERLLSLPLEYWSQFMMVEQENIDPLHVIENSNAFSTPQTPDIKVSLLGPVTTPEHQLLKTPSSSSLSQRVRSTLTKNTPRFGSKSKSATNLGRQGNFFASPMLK
Put plainly: MgcRacGAP GTPase-activating activity inhibitors, confirmation, biochemical, ADP Hunter fluorescence, primary and confirmatory (AID 624330). The assay is classed as functional.

The nature of assay [15]: HeLa cell cytotoxicity, dose response, cytotoxicity control for MgcRacGAP inhibitor project (AID 624300). The assay is classed as functional.
The nature of assay [16]: cytotoxicity toward NIH3T3 fibroblasts, dose response, counter-screen, cell-based, ATP luminescence, mouse fibroblasts (AID 2010).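 Further: cells exposed to compound for about 90 hours before reading.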 The assay is classed as functional.

Galanin receptor type 3, sequence (O60755 whole entry): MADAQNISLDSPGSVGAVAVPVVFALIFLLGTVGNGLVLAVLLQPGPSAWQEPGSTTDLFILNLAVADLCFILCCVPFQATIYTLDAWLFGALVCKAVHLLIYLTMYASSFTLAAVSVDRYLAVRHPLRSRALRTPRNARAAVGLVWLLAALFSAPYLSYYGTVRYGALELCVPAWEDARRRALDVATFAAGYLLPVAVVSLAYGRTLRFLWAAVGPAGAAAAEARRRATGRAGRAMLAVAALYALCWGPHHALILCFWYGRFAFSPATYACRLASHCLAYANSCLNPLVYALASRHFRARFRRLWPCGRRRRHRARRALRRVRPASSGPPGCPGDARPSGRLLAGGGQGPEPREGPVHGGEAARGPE
Long-chain-fatty-acid--AMP ligase FadD28, sequence (P9WQ59 whole entry): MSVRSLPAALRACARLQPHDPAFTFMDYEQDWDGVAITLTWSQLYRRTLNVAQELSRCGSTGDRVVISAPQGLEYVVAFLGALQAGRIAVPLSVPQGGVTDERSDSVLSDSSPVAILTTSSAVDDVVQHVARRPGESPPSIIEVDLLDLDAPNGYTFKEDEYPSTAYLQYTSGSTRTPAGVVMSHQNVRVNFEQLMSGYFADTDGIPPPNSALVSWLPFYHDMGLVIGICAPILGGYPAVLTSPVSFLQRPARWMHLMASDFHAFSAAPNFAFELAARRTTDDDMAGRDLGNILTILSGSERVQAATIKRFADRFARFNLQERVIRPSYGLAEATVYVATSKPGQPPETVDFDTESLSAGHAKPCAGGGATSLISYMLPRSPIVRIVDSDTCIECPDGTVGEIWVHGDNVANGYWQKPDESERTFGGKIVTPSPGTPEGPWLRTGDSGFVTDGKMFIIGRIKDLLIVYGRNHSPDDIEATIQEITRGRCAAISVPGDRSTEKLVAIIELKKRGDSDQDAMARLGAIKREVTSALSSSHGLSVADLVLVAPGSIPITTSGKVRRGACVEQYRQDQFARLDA

`CCc1cccc2c(C(=O)Cn3nnc(-c4ccc(OC)c(OC)c4)n3)c[nH]c12`: the AC50 in assay [1] was 40.8 µM (active). For the same molecule, the IC50 on Estrogen receptor is 10.3 µM (active).

In [2], `Cc1noc(C)c1S(=O)(=O)Nc1ccc2c(c1)C(=O)N([C@H](C)CO)C[C@H](C)[C@H](CN(C)Cc1ccc(C(F)(F)F)cc1)OCCCC[C@H](C)O2` yielded an AbsAC35 of 76.4 µM.

The molecule `COc1ccccc1CNC(=O)C[C@H]1C[C@@H]2c3cc(NC(=O)CN(C)C)ccc3O[C@@H]2[C@@H](CO)O1` gave an AbsAC35 in assay [2] of 106.52 µM.

Turning to `CCN(CC)CCn1nc2c3c(cccc3c1=O)-c1ccccc1-2`, the EC50 is > 91.2 µM (inactive) in [3]; 41 µM (active) in the assay “cells [4]”; > 260 µM (inactive) in assay [6]; > 350 µM (not active) in “cells [8]”; 1.46 µM (active) in [9]; > 91.2 µM (inactive) in assay [10]. For the same molecule, the AC50 with INS1 was 2.4 µM (active); in assay [5], 5.92 µM (active). The IC50 in assay [7] was > 67.5 µM (inactive).

Consider `Nc1nc2ccccc2cc1C(=O)NCc1ccc(-c2ccccc2)cc1`, for which the IC50 in assay [11] was 2.01 µM (active); on Galanin receptor type 3 it was 0.392 µM (active). Further, in “cells [12]”, the EC50 was > 29.9 µM (inactive).

As to `COc1ccc(/C=N/Nc2cc(C)nc3c(C)cccc23)cc1`, the AC50 in [13] was 2.28 µM (active). Besides, the IC50 in assay [14] is 68.9 µM (active). Also, the EC50 was > 91.2 µM (inactive) in assay [3], > 60 µM (not active) in assay [16], 1.14 µM (active) in assay [9] and > 91.2 µM (inactive) in assay [10]. Besides, the CC50 in [15] was 31.6 µM (active).
